Measurements published in US11744840B2, “N-palmitoyl-D-glucosamine in a micronized form” (Innovet Italia S.R.L., priority 2018, dated 2023).
Each block holds one compound with its values, some of them ahead of it.

How the values were obtained:
[1] = test system: carrageenan edema in the rat's paw; experiment: carrageenan edema in the rat's paw, physical forms of PGA and Curcumin; assay type: in vivo; conditions: for edema as a percentage of the edema produced only by carrageenan (value of 100) / pharmacological effect on carrageenan edema (in words): rat; for edema as a percentage of the edema produced only by carrageenan (value of 100): PGA 30, PGA-m 20, CUR-m 10, PGACUR-m 30, PGA-sm 20 mg/kg; for pharmacological effect on carrageenan edema (in words): PGA 30, PGA-m 20, PGA-sm 20, CUR 10, PGACUR-m 30 mg/kg
Procedure: The experimental model of carrageenan edema was used in the rat's paw, which determines epithelial dysfunction at the paw level.
The experimental model of carrageenan edema in the paw was induced by sub-plantar injection of a carrageenan solution (containing 50 μl of sterile saline containing 1% carrageenan) into the right paw of the animal (rat).
At specific time intervals the plantar volume was measured by a plethysmometer (Ugo Basile, Milan, Italy). The increase in plantar volume was evaluated as the difference between the value obtained in the specific time intervals and the volume at baseline (time 0) measured immediately before the administration of carrageenan.
The following physical forms of N-palmitoyl-D-glucosamine were tested: • Non-micronized N-palmitoyl-D-glucosamine (PGA); • Micronized N-palmitoyl-D-glucosamine (PGA-m); • N-palmitoyl-D-glucosamine co-micronized with Curcumin (PGACUR-m); • N-palmitoyl-D-glucosamine in a sub-micron form (PGA-sm).
The following physical form of Curcumin was also tested: • Micronized Curcumin (CUR-m)
In all cases PGA was tested as a PGA/fatty acid mixture.
The thus obtained results, expressed as a percentage of the edema produced only by carrageenan (indicated with a value of 100), are as follows: […]

[2] = test system: carrageenan edema in the rat's paw; experiment: carrageenan edema in the rat's paw, PGA with or without Polydatin; assay type: in vivo; conditions: Wistar rat, doses per group b126-b129, unit assumed
Procedure: Also in this case, the experimental model of carrageenan edema in the rat's paw was used, which determines epithelial dysfunction at the paw level.
The edema was induced by the sub-plantar injection of 50 μl of an aqueous 1% carrageenan solution. At time intervals (30 min, 1 h, 2 h, 3 h, 4 h, 5 h, 6 h) the volume of the injected paw was evaluated by means of a plethysmometer (Ugo Basile, Milan—Italy). The following physical forms of N-palmitoyl-D-glucosamine with or without Polydatin were tested in groups of 10 animals (Wistar strain weighing between 130 and 160 g) for each group, in the dosages indicated in brackets:
Group B) Carrageenan+micronized Palmitoylglucosamine (10 mg/kg)
Group C) Carrageenan+micronized Polydatin (1 mg/kg)
Group D) Carrageenan+Palmitoylglucosamine (10 mg/kg)+Polydatin (1 mg/kg) [mixed]
Group E) Carrageenan+Palmitoylglucosamine and co-micronized Polydatin [10:1] (11 mg/kg)

SMILES: CCCCCCCCCCCCCCCC(=O)N[C@H]1C(O)O[C@H](CO)[C@@H](O)[C@@H]1O (stereo partly drawn) [PGA-m, N-palmitoyl-D-glucosamine]
edema as a percentage of the edema produced only by carrageenan (value of 100) ([1]; 30 min): 100.0%
edema as a percentage of the edema produced only by carrageenan (value of 100) ([1]; 1 hr): 92.2%
edema as a percentage of the edema produced only by carrageenan (value of 100) ([1]; 2 hr): 80.1%
edema as a percentage of the edema produced only by carrageenan (value of 100) ([1]; 3 hr): 71.5%
edema as a percentage of the edema produced only by carrageenan (value of 100) ([1]; 4 hr): 70.4%
edema as a percentage of the edema produced only by carrageenan (value of 100) ([1]; 5 hr): 75.5%
reduction of the Carrageenan edema ([1]; PGA-m 20 mg/Kg, co-micronized PGA-m 20 mg/Kg + CUR 10 mg/kg, corresponds to the 5 hr values of Table 1): 24.5%
pharmacological effect on carrageenan edema (in words) [1]: apparent pharmacological effect
Paw volume ([2]; 30 min from treatment): 0.23 mL
Paw volume ([2]; 1 h from treatment): 0.33 mL
Paw volume ([2]; 2 h from treatment): 0.81 mL
Paw volume ([2]; 3 h from treatment): 1 mL
Paw volume ([2]; 4 h from treatment): 1.21 mL
Paw volume ([2]; 5 h from treatment): 1.33 mL
Paw volume ([2]; 6 h from treatment): 1.05 mL

SMILES: OC[C@H]1O[C@@H](Oc2cc(O)cc(/C=C/c3ccc(O)cc3)c2)[C@H](O)[C@@H](O)[C@@H]1O [Group C), Polydatin, reference compound]
Paw volume ([2]; 30 min from treatment): 0.21 mL
Paw volume ([2]; 1 h from treatment): 0.32 mL
Paw volume ([2]; 2 h from treatment): 0.69 mL
Paw volume ([2]; 3 h from treatment): 1.03 mL
Paw volume ([2]; 4 h from treatment): 1.19 mL
Paw volume ([2]; 5 h from treatment): 1.28 mL
Paw volume ([2]; 6 h from treatment): 0.95 mL

SMILES: CCCCCCCCCCCCCCCC(=O)N[C@H]1C(O)O[C@H](CO)[C@@H](O)[C@@H]1O (stereo partly drawn) [PGA-sm, N-palmitoyl-D-glucosamine]
edema as a percentage of the edema produced only by carrageenan (value of 100) ([1]; 30 min): 100.0%
edema as a percentage of the edema produced only by carrageenan (value of 100) ([1]; 1 hr): 100.0%
edema as a percentage of the edema produced only by carrageenan (value of 100) ([1]; 2 hr): 98.0%
edema as a percentage of the edema produced only by carrageenan (value of 100) ([1]; 3 hr): 97.0%
edema as a percentage of the edema produced only by carrageenan (value of 100) ([1]; 4 hr): 98.0%
edema as a percentage of the edema produced only by carrageenan (value of 100) ([1]; 5 hr): 98.0%
pharmacological effect on carrageenan edema (in words) [1]: no significant pharmacological effect
pharmacological effect on carrageenan edema (in words) ([1]; listed as sub-micron PGA): markedly pejorative activity compared to the micronized PGA
pharmacological effect on carrageenan edema (in words) ([1]; listed as sub-micronized PGA): almost total inactivity

melting point: 202 °C (dec.)
SMILES: CCCCCCCCCCCCCCCC(=O)N[C@H]1C(O)O[C@H](CO)[C@@H](O)[C@@H]1O (stereo partly drawn) [PGA, N-palmitoyl-D-glucosamine]
edema as a percentage of the edema produced only by carrageenan (value of 100) ([1]; 30 min): 100.0%
edema as a percentage of the edema produced only by carrageenan (value of 100) ([1]; 1 hr): 100.0%
edema as a percentage of the edema produced only by carrageenan (value of 100) ([1]; 2 hr): 100.0%
edema as a percentage of the edema produced only by carrageenan (value of 100) ([1]; 3 hr): 100.0%
edema as a percentage of the edema produced only by carrageenan (value of 100) ([1]; 4 hr): 100.0%
edema as a percentage of the edema produced only by carrageenan (value of 100) ([1]; 5 hr): 100.0%
pharmacological effect on carrageenan edema (in words) ([1]; listed as PGA (non-micronized)): no pharmacological effect
pharmacological effect on carrageenan edema (in words) ([1]; listed as non-micronized PGA): total inactivity

SMILES: COc1cc(/C=C/C(=O)CC(=O)/C=C/c2ccc(O)c(OC)c2)ccc1O [CUR-m, Curcumin, reference compound]
edema as a percentage of the edema produced only by carrageenan (value of 100) ([1]; 30 min): 100.3%
edema as a percentage of the edema produced only by carrageenan (value of 100) ([1]; 1 hr): 95.4%
edema as a percentage of the edema produced only by carrageenan (value of 100) ([1]; 2 hr): 95.1%
edema as a percentage of the edema produced only by carrageenan (value of 100) ([1]; 3 hr): 94.8%
edema as a percentage of the edema produced only by carrageenan (value of 100) ([1]; 4 hr): 96.2%
edema as a percentage of the edema produced only by carrageenan (value of 100) ([1]; 5 hr): 97.4%
pharmacological effect on carrageenan edema (in words) ([1]; listed as micronized CUR): no significant pharmacological effect
pharmacological effect on carrageenan edema (in words) ([1]; listed as micronized Curcumin): almost total inactivity
